In brackets after ≈: the same amount, converted by molar mass. Activity calls are given as the source filed them. The rule behind the calls is not given here.
Columns and labels:
[1] = tested on: Mycobacterium tuberculosis; assay: Antibacterial activity against Mycobacterium tuberculosis H37Rv assessed as inhibition of bacterial growth incubated for 7 days by alamar blue assay; type: functional; settings: 168 h, time 7 day
Bacillus subtilis = assay: Antibacterial activity against Bacillus subtilis ATCC6633 assessed as inhibition of bacterial growth incubated for 18 hrs by microdilution broth assay; type: functional
[2] = Cytotoxicity against African green monkey Vero cells incubated for 48 hrs by MTT assay; type: toxicity, cell-based, Chlorocebus sabaeus
[3] = tested on: Staphylococcus epidermidis; assay: Antibacterial activity against methicillin resistant Staphylococcus epidermidis clinical isolate 20-2 assessed as inhibition of bacterial growth incubated for 7 days by alamar blue assay; type: functional; settings: clinical isolate 20-2, 168 h, time 7 day
[4] = Metabolic stability in human liver microsomes assessed as compound remaining at 10 uM incubated for 60 mins in absence of NADPH by LC-MS/MS analysis; type: ADME, Microsome; settings: read-out: Stability
[5] = Metabolic stability in ICR mouse liver microsomes assessed as substrate remaining at 10 uM incubated for 60 mins in presence of NADPH by LC-MS/MS analysis; type: ADME, Microsome; settings: read-out: Stability
[6] = Terminal half life in BALB/c mouse at 1 mg/kg,iv administration measured upto 24 hrs by LC-MS/MS analysis; type: ADME, organism-based; settings: in vivo, read-out: beta t1/2 (converted)
[7] = Terminal half life in BALB/c mouse at 10 mg/kg,po administration measured upto 24 hrs by LC-MS/MS analysis; type: ADME, organism-based; settings: in vivo, read-out: beta t1/2 (converted)
[8] = AUC (0 to t) in BALB/c mouse at 1 mg/kg,iv administration measured upto 24 hrs by LC-MS/MS analysis; type: ADME, organism-based; settings: in vivo
[9] = AUC (0 to infinity) in BALB/c mouse at 1 mg/kg,iv administration measured upto 24 hrs by LC-MS/MS analysis; type: ADME, organism-based; settings: BALB/c, in vivo
[10] = Clearance in BALB/c mouse at 1 mg/kg,iv administration measured upto 24 hrs by LC-MS/MS analysis; type: ADME, organism-based; settings: in vivo
[11] = Tmax in BALB/c mouse at 10 mg/kg,po administration measured upto 24 hrs by LC-MS/MS analysis; type: ADME, organism-based; settings: in vivo
Staphylococcus aureus [12] = assay: Antibacterial activity against daptomycin/methicillin resistant Staphylococcus aureus assessed as inhibition of bacterial growth incubated for 7 days by alamar blue assay; type: functional; settings: 168 h, time 7 day
Staphylococcus aureus [13] = assay: Bacteriostatic activity against methicillin resistant Staphylococcus aureus ATCC 33592 at 4 times MIC incubated for 2 to 24 hrs by time-kill assay; type: functional, organism-based; settings: time 2-24 hrs
Staphylococcus aureus [14] = assay: Antibacterial activity against methicillin resistant Staphylococcus aureus ATCC 33592 infected in cyclophosphamide-induced immunosuppressed Kunming mouse by measuring survival rate of mouse at 25 mg/kg,po administration measured for 7 days; type: functional; settings: ATCC 33592, 168 h, time 7 day
Staphylococcus aureus [15] = assay: Antibacterial activity against methicillin resistant Staphylococcus aureus ATCC 33592 infected in cyclophosphamide-induced immunosuppressed Kunming mouse by measuring survival rate of mouse at 50 mg/kg,po administration measured for 7 days; type: functional; settings: ATCC 33592, 168 h, time 7 day
Staphylococcus aureus [16] = assay: Antibacterial activity against methicillin resistant Staphylococcus aureus ATCC 33592 infected in cyclophosphamide-induced immunosuppressed Kunming mouse assessed as reduction in bacterial load in spleen at 10 to 50 mg/kg,po administration measured after 24 hrs by hematoxylin and eosin staining based microscopy; type: functional, organism-based; settings: dose 10-50 mg/kg
Staphylococcus aureus [17] = assay: Antibacterial activity against methicillin resistant Staphylococcus aureus ATCC 33592 infected in cyclophosphamide-induced immunosuppressed Kunming mouse assessed as reduction in bacterial load in lung at 10 to 50 mg/kg,po administration measured after 24 hrs by hematoxylin and eosin staining based microscopy; type: functional, organism-based; settings: dose 10-50 mg/kg
Staphylococcus aureus [18] = assay: Antibacterial activity against methicillin resistant Staphylococcus aureus ATCC 33592 infected in cyclophosphamide-induced immunosuppressed Kunming mouse assessed as reduction in bacterial load in kidney at 25 to 50 mg/kg,po administration measured after 24 hrs by hematoxylin and eosin staining based microscopy; type: functional, organism-based; settings: dose 25-50 mg/kg
Staphylococcus aureus [19] = assay: Antibacterial activity against methicillin resistant Staphylococcus aureus ATCC 33592 infected in cyclophosphamide-induced immunosuppressed Kunming mouse assessed as increase in white blood cell at 25 to 50 mg/kg,po administration measured after 7 days by Giemsa staining based analysis; type: functional, organism-based; settings: dose 25-50 mg/kg, time 7.0 day
Staphylococcus aureus [20] = assay: Antibacterial activity against methicillin resistant Staphylococcus aureus ATCC 33592 infected in cyclophosphamide-induced immunosuppressed Kunming mouse assessed as decrease in IL-6 level at po administration measured after 24 hrs by ELISA; type: functional, organism-based
Staphylococcus aureus [21] = assay: Antibacterial activity against methicillin resistant Staphylococcus aureus ATCC 33592 infected in cyclophosphamide-induced immunosuppressed Kunming mouse assessed as decrease in TNF-alpha level at po administration measured after 24 hrs by ELISA; type: functional, organism-based
Staphylococcus aureus [22] = assay: Antibacterial activity against methicillin resistant Staphylococcus aureus ATCC 33592 infected in cyclophosphamide-induced immunosuppressed Kunming mouse assessed as reduction in histopathological change in heart at 10 to 50 mg/kg,po administration measured after 24 hrs by hematoxylin and eosin staining based microscopy; type: functional, organism-based; settings: dose 10-50 mg/kg
Staphylococcus aureus [23] = assay: Antibacterial activity against methicillin resistant Staphylococcus aureus ATCC 33592 infected in cyclophosphamide-induced immunosuppressed Kunming mouse assessed as reduction in inflammatory cell infiltration in kidney at 50 mg/kg,po administration measured after 24 hrs by hematoxylin and eosin staining based microscopy; type: functional, organism-based
Staphylococcus aureus [24] = assay: Antibacterial activity against methicillin resistant Staphylococcus aureus ATCC 33592 infected in cyclophosphamide-induced immunosuppressed Kunming mouse assessed as reduction in pigment deposition in spleen at 50 mg/kg,po administration measured after 24 hrs by hematoxylin and eosin staining based microscopy; type: functional, organism-based
Staphylococcus aureus [25] = assay: Antibacterial activity against methicillin resistant Staphylococcus aureus ATCC 33592 infected in cyclophosphamide-induced immunosuppressed Kunming mouse assessed as reduction in congestion in spleen at 10 mg/kg,po administration measured after 24 hrs by hematoxylin and eosin staining based microscopy; type: functional, organism-based
Staphylococcus aureus [26] = assay: Antibacterial activity against methicillin resistant Staphylococcus aureus ATCC 33592 infected in cyclophosphamide-induced immunosuppressed Kunming mouse assessed as reduction in pigment deposition in spleen at 10 mg/kg,po administration measured after 24 hrs by hematoxylin and eosin staining based microscopy; type: functional, organism-based
Cell membrane [27] = assay: Disruption of cell membrane integrity in Staphylococcus aureus ATCC 25923 assessed as increase in red fluorescence at 0.5 ug/ml incubated for 1 hr by […] and propidium iodide double staining based confocal microscopic analysis; type: cell membranes; settings: dose 0.5 µg/ml
Cell membrane [28] = assay: Disruption of cell membrane integrity in methicillin resistant Staphylococcus aureus ATCC 33592 assessed as increase in red fluorescence at 1 ug/ml incubated for 1 hr by […] and propidium iodide double staining based confocal microscopic analysis; type: cell membranes; settings: dose 1.0 µg/ml
Cell membrane [29] = assay: Disruption of cell membrane in methicillin resistant Staphylococcus aureus ATCC 33592 assessed as cell surface perforation at 0.5 ug/ml incubated for 6 hrs by Scanning electron microscopic analysis; type: cell membranes; settings: dose 0.5 µg/ml
Staphylococcus aureus [30] = assay: Inhibition of biofilm formation in Staphylococcus aureus ATCC 29213 at 1 to 10 ug/ml incubated for 48 hrs by crystal violet staining based assay; type: functional, organism-based; settings: dose 1-10 µg/ml
[31] = Free AUC in BALB/c mouse at 10 mg/kg,po administration measured upto 24 hrs by LC-MS/MS analysis; type: ADME, organism-based; settings: in vivo

CC(=O)NC[C@@H]1OC(=O)N2Cc3cc(-c4ccc(C#N)cc4)c(F)cc3O[C@@H]12
MIC [1]: 0.52 µg/mL (≈ 1.36 µM) | MIC (Bacillus subtilis): 0.032 µg/mL (≈ 0.0839 µM) | IC50 at 48 h [2]: 35 µg/mL (≈ 91.8 µM) | MIC [3]: 0.06 µg/mL (≈ 0.157 µM) | remaining at 1 h, 10 µM [4]: 120% | remaining at 1 h, 10 µM [5]: 100% | half-life [6]: 7.9 h | half-life [7]: 11.9 h | AUC(0-t) at 24 h [8]: 5120 ng·h/mL | AUC(0-inf) [9]: 5130 ng·h/mL | clearance [10]: 2.92 mL/min/kg | Tmax [11]: 2 h | MIC (Staphylococcus aureus [12]): 1 µg/mL (≈ 2.62 µM) | Activity (Staphylococcus aureus [13]): Active | survival at 25 mg/kg (Staphylococcus aureus [14]): 100% | survival at 50 mg/kg (Staphylococcus aureus [15]): 100% | Activity (Staphylococcus aureus [16]): Active | Activity (Staphylococcus aureus [17]): Active | Activity (Staphylococcus aureus [18]): Active | Activity (Staphylococcus aureus [19]): Active | Activity (Staphylococcus aureus [20]): Dose-Dependent Effect | Activity (Staphylococcus aureus [21]): Dose-Dependent Effect | Activity (Staphylococcus aureus [22]): Active | Activity (Staphylococcus aureus [23]): Active | Activity (Staphylococcus aureus [24]): Active | Activity (Staphylococcus aureus [25]): Active | Activity (Staphylococcus aureus [26]): Active | Activity (Cell membrane [27]): Active | Activity (Cell membrane [28]): Active | Activity (Cell membrane [29]): Active | inhibition (Staphylococcus aureus [30]): Active | fAUC [31]: 14940 ng·h/mL
